# Source: patent publication US9526795B2, “N-BOC-dendrimers and their conjugates” (Annam Biosciences, LLC, priority 2012, dated 2016)
# Test system: ovarian cancer cell lines
# Assay: doxorubicin-dendrimer-folate uptake in ovarian cancer cells
# Type: cell-based
# Conditions: FIG. 8; compared with doxorubicin and doxorubicin-(folate)1; folate-quenching correction
# Description: Ovarian cancer cells were purchased from ATCC (CRL-6322, ATCC American Type Culture Collection, Rockville, Md.) and were grown in Dulbecco's modified Eagle's medium (DMEM) with 10% fetal bovine serum and 100 units/mL penicillin. The cells were grown at 37° C. in 5% CO2 environment. The culture medium was removed and discarded. The cells were rinsed with Dulbecco Phosphate Buffer Solution (DPBS), Trypsin-ethylenediaminetetra-acetic acid (EDTA) solution (0.5 ml) was added, and the cells were observed under an inverted microscope to make sure that they were dispersed. Complete growth medium (6.0 to 8.0 ml) was added, and the cells were aspirated by gently pipetting. The cell suspension in appropriate aliquots was transferred to new culture plates. The cells were allowed to grow at 37° C. in 5% CO2 for 24 hours before further experiments. […]
# The evaluation of doxorubicin-dendrimer-folate uptake is conducted by using a literature procedure (Kim D, Lee E S, Oh K T, Gao Z G, Bae Y H. Doxorubicin-loaded polymeric micelle overcomes multidrug resistance of cancer by double-targeting folate receptor and early endosomal pH. Small. 2008 November; 4(11):2043-50) and folate-quenching correction was adjusted based on a literature procedure (Husseini G. A., 2012. Folic Acid Quenches Doxorubicin Fluorescence. Advanced Science Letters. 7:726).
compound,measurement,value
"COc1cccc2c1C(=O)c1c(O)c3c(c(O)c1C2=O)C[C@@](O)(/C(CO)=N/NC(=O)CCCC(=O)NCCCOCCOCCOCCCN(CCC(=O)NCCNC(=O)CCC(NC(=O)c1ccc(NCc2cnc4c(=O)[nH]c(N)nc4n2)cc1)C(=O)O)CCC(=O)NCCNC(=O)CCC(NC(=O)c1ccc(NCc2cnc4c(=O)[nH]c(N)nc4n2)cc1)C(=O)O)C[C@H]3O[C@H]1C[C@@H](N)[C@@H](O)[C@@H](C)O1 (stereo partly shown) [doxorubicin-dendrimer-(folate)2, doxorubicin-hydrazine-glutaric acid-PEG3-dendrimer-2-folates]",uptake by ovarian cancer cell lines,superior uptake
